Test results: ChEMBL document CHEMBL1201862, “PubChem BioAssay data set” (2004)
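In this assay, cells in 96-well plates receive the compound at five concentrations for 48 hours. Endpoints are linearly interpolated between the surrounding concentrations. Abbreviation: GI50, concentration required for 50% inhibition of growth.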 Calls of active or inactive are those of the source. Rule as the data show it: active = GI50 up to about 1.1 µM and inactive = higher.

Key:
Assay in all cases: DTP human tumour cell line panel, 48 h
786-0 = system: 786-0
A549 = system: A549
ACHN = system: ACHN
BT-549 = system: BT-549
CAKI-1 = system: CAKI-1
CCRF-CEM = system: CCRF-CEM
COLO 205 = system: COLO 205
DU-145 = system: DU-145
EKVX = system: EKVX
HCC 2998 = system: HCC 2998
HCT-116 = system: HCT-116
HCT-15 = system: HCT-15
HL-60 = system: HL-60
HOP-92 = system: HOP-92
HT-29 = system: HT-29
Hs-578T = system: Hs-578T
K562 = system: K562
KM12 = system: KM12
LOX IMVI = system: LOX IMVI
M14 = system: M14
MCF7 = system: MCF7
MDA-MB-231 = system: MDA-MB-231
MDA-MB-435 = system: MDA-MB-435
MDA-N = system: MDA-N
MOLT-4 = system: MOLT-4
Malme-3M = system: Malme-3M
NCI-H226 = system: NCI-H226
NCI-H23 = system: NCI-H23
NCI-H460 = system: NCI-H460
NCI-H522 = system: NCI-H522
NCI/ADR-RES = system: NCI/ADR-RES
OVCAR-3 = system: OVCAR-3
OVCAR-4 = system: OVCAR-4
OVCAR-5 = system: OVCAR-5
OVCAR-8 = system: OVCAR-8
PC-3 = system: PC-3
RXF 393 = system: RXF 393
SF-268 = system: SF-268
SF-295 = system: SF-295
SF-539 = system: SF-539
SK-MEL-28 = system: SK-MEL-28
SK-MEL-2 = system: SK-MEL-2
SK-MEL-5 = system: SK-MEL-5
SK-OV-3 = system: SK-OV-3
SN12C = system: SN12C
SNB-19 = system: SNB-19
SNB-75 = system: SNB-75
SR = system: SR
SW-620 = system: SW-620
T47D = system: T47D
TK-10 = system: TK-10
U-251 = system: U-251
UACC-257 = system: UACC-257
UACC-62 = system: UACC-62
UO-31 = system: UO-31
A498 = system: A498
HOP-62 = system: HOP-62
RPMI-8226 = system: RPMI-8226

C=CC(C)(C)c1cc([C@@H]2COc3cc(O)ccc3C2=O)c(O)c(O)c1OC
GI50 (786-0): 14.3 µM (inactive)
GI50 (A549): 33.7 µM (inactive)
GI50 (ACHN): 17.6 µM (inactive)
GI50 (BT-549): 18 µM (inactive)
GI50 (CAKI-1): 13.2 µM (inactive)
GI50 (CCRF-CEM): 41.7 µM (inactive)
GI50 (COLO 205): 26.7 µM (inactive)
GI50 (DU-145): 20.7 µM (inactive)
GI50 (EKVX): 28.6 µM (inactive)
GI50 (HCC 2998): 61.8 µM (inactive)
GI50 (HCT-116): 16.9 µM (inactive)
GI50 (HCT-15): 16.5 µM
GI50 (HL-60): 22.7 µM (inactive)
GI50 (HOP-92): 18.8 µM (inactive)
GI50 (HT-29): 21.9 µM (inactive)
GI50 (Hs-578T): 39 µM (inactive)
GI50 (K562): 34.8 µM (inactive)
GI50 (KM12): 19.8 µM (inactive)
GI50 (LOX IMVI): 16.2 µM (inactive)
GI50 (M14): 22.3 µM (inactive)
GI50 (MCF7): 17.4 µM (inactive)
GI50 (MDA-MB-231): 25.2 µM (inactive)
GI50 (MDA-MB-435): 19.3 µM (inactive)
GI50 (MDA-N): 22.2 µM (inactive)
GI50 (MOLT-4): 25.7 µM (inactive)
GI50 (Malme-3M): 30.5 µM (inactive)
GI50 (NCI-H226): 39.3 µM (inactive)
GI50 (NCI-H23): 17.1 µM (inactive)
GI50 (NCI-H460): 66.4 µM (inactive)
GI50 (NCI-H522): 17 µM (inactive)
GI50 (NCI/ADR-RES): 24.8 µM (inactive)
GI50 (OVCAR-3): 15.8 µM (inactive)
GI50 (OVCAR-4): 16.9 µM (inactive)
GI50 (OVCAR-5): 31.4 µM (inactive)
GI50 (OVCAR-8): 16.4 µM (inactive)
GI50 (PC-3): 18.7 µM (inactive)
GI50 (RXF 393): 4.85 µM (inactive)
GI50 (SF-268): 18.2 µM (inactive)
GI50 (SF-295): 39.4 µM (inactive)
GI50 (SF-539): 24.9 µM (inactive)
GI50 (SK-MEL-28): 27.8 µM (inactive)
GI50 (SK-MEL-2): 22.5 µM (inactive)
GI50 (SK-MEL-5): 19.7 µM (inactive)
GI50 (SK-OV-3): 29.1 µM (inactive)
GI50 (SN12C): 17.6 µM (inactive)
GI50 (SNB-19): 23.5 µM (inactive)
GI50 (SNB-75): 27.4 µM (inactive)
GI50 (SR): 22.3 µM (inactive)
GI50 (SW-620): 26.7 µM (inactive)
GI50 (T47D): 25.4 µM (inactive)
GI50 (TK-10): > 100 µM (inactive)
GI50 (U-251): 20.2 µM (inactive)
GI50 (UACC-257): 61.7 µM (inactive)
GI50 (UACC-62): 18.1 µM (inactive)
GI50 (UO-31): 15.9 µM (inactive)

c1cc(-c2ccc(-c3ccc(C4=NC5CCCCC5N4)cc3)o2)ccc1C1=NC2CCCCC2N1 (configuration not stated)
GI50 (786-0): 1.49 µM (inactive)
GI50 (A498): 2.86 µM (inactive)
GI50 (A549): 1.71 µM (inactive)
GI50 (ACHN): 2.36 µM (inactive)
GI50 (BT-549): 2.11 µM (inactive)
GI50 (CAKI-1): 5.92 µM (inactive)
GI50 (CCRF-CEM): 1.79 µM (inactive)
GI50 (COLO 205): 1.5 µM (inactive)
GI50 (DU-145): 1.6 µM (inactive)
GI50 (EKVX): 1.69 µM (inactive)
GI50 (HCC 2998): 1.3 µM (inactive)
GI50 (HCT-116): 1.51 µM (inactive)
GI50 (HCT-15): 5.19 µM
GI50 (HL-60): 2.31 µM (inactive)
GI50 (HOP-62): 1.5 µM (inactive)
GI50 (HOP-92): 1.43 µM (inactive)
GI50 (HT-29): 1.39 µM (inactive)
GI50 (Hs-578T): 1.55 µM (inactive)
GI50 (K562): 1.42 µM (inactive)
GI50 (KM12): 1.46 µM (inactive)
GI50 (LOX IMVI): 1.56 µM (inactive)
GI50 (M14): 1.64 µM (inactive)
GI50 (MCF7): 1.21 µM (inactive)
GI50 (MDA-MB-231): 1.5 µM (inactive)
GI50 (MDA-MB-435): 1.86 µM (inactive)
GI50 (MDA-N): 1.67 µM (inactive)
GI50 (MOLT-4): 1.8 µM (inactive)
GI50 (Malme-3M): 1.73 µM (inactive)
GI50 (NCI-H226): 1.85 µM (inactive)
GI50 (NCI-H23): 1.58 µM (inactive)
GI50 (NCI-H460): 1.84 µM (inactive)
GI50 (NCI-H522): 1.61 µM (inactive)
GI50 (NCI/ADR-RES): 28.4 µM (inactive)
GI50 (OVCAR-3): 1.85 µM (inactive)
GI50 (OVCAR-4): 1.56 µM (inactive)
GI50 (OVCAR-5): 2.09 µM (inactive)
GI50 (OVCAR-8): 1.79 µM (inactive)
GI50 (PC-3): 1.46 µM (inactive)
GI50 (RPMI-8226): 1.76 µM (inactive)
GI50 (RXF 393): 1.95 µM (inactive)
GI50 (SF-268): 1.55 µM (inactive)
GI50 (SF-295): 1.84 µM (inactive)
GI50 (SF-539): 1.73 µM (inactive)
GI50 (SK-MEL-28): 1.83 µM (inactive)
GI50 (SK-MEL-2): 1.82 µM (inactive)
GI50 (SK-MEL-5): 1.57 µM (inactive)
GI50 (SK-OV-3): 1.64 µM (inactive)
GI50 (SN12C): 1.47 µM (inactive)
GI50 (SNB-19): 1.47 µM (inactive)
GI50 (SNB-75): 1.68 µM (inactive)
GI50 (SW-620): 2.56 µM (inactive)
GI50 (T47D): 1.98 µM (inactive)
GI50 (TK-10): 5.19 µM (inactive)
GI50 (U-251): 1.44 µM (inactive)
GI50 (UACC-257): 1.75 µM (inactive)
GI50 (UACC-62): 1.71 µM (inactive)
GI50 (UO-31): 2.99 µM (inactive)
